From patent US10543183B2, “Treatment and diagnosis of melanoma” (The Rockefeller University, priority 2012, dated 2020)
Structures can show the parent of a compound that is named as a salt.

Assays:
[1] = system: ApoE promoter fused to ME.1 or ME.2 in MeWo cells; test: ApoE promoter activity assay (luciferase reporter); type: cell-based, human; details: 1 μM, 24 hours
From the text: The ApoE promoter, consisting of a sequence spanning 980 base pairs upstream and 93 base pairs downstream of the ApoE gene, was cloned into a pGL3-Basic vector (E1751, Promega Corporation, Madison, Wis.) upstream of the firefly luciferase gene using NheI and SacI restriction enzymes. Then, multi-enhancer elements 1 (ME.1) and 2 (ME.2) were cloned directly upstream of the ApoE promoter using MluI and […] restriction enzymes. To assess ApoE promoter- and ME.1/ME.2-driven transcriptional activation by LXR agonists, 5×10^4 MeWo cells were seeded into a 24-well plate. The following day, 100 ng of pGL3-ME.1/ME.2-ApoE promoter construct and 2 ng of pRL-CMV renilla luciferase construct (E2261, Promega) were co-transfected into cells in the presence of DMSO, GW3965, or T0901317 at 1 μM, each condition in quadruplicate. To assess transcriptional activation by LXRα or LXRβ, 5×10^4 MeWo cells expressing a control shRNA or shRNA targeting LXRα or LXRβ were seeded into a 24-well plate. […] After 24 hours, cells were lysed, and cell lysate was analyzed for firefly and renilla luciferase activity using the Dual Luciferase Assay System (E1960, Promega) and a Bio-Tek Synergy NEO Microplate Reader. Firefly luciferase signal was normalized to renilla luciferase signal and all data are expressed relative to the luciferase activity ratio measured in the DMSO-treated control cells.

[2] = system: ApoE expression in systemic tissues; test: systemic ApoE expression in mouse tissues (western blot, qRT-PCR); type: in vivo; details: 10 days; for ApoE protein expression in systemic adipose, lung, and brain tissues: chow 20 mg/kg; for ApoE transcript levels in circulating white blood cells: diet 20 mg/kg
Experimental: Mouse lung and brain tissue samples were homogenized on ice in RIPA buffer (Sigma-Aldrich) supplemented with protease inhibitors (Roche). Mouse adipose tissue was homogenized on ice in TNET buffer (1.5 mM Tris pH 7.5, 150 mM NaCl, 2 mM EDTA 1% triton, protease inhibitors). Total protein lysate (2 μg) was separated by SDS-PAGE, transferred to PVDF membrane, and blotted with an anti-mouse ApoE (ab20874, Abcam) and anti-tubulin α/β (2148, Cell Signaling) antibodies. RNA was extracted from whole cell lysates using the Total RNA Purification Kit (17200, Norgen, Thorold, Canada). 600 ng of total RNA was then reverse transcribed into cDNA using the cDNA First-Strand Synthesis Kit (18080-051, Invitrogen), and quantitative real-time PCR amplification was performed as previously described (Pencheva et al., 2012) using an ABI Prism 7900HT Real-Time PCR System (Applied Biosystems, Austin, Tex.). Each PCR reaction was carried out in quadruplicates. Gene expression was normalized to GAPDH, which was used as an endogenous control.

[3] = system: ApoE expression in human melanoma cells; test: ApoE mRNA expression by qRT-PCR in melanoma cells; type: cell-based
Experimental: Total RNA was extracted from various cell lines using the miRvana kit (AM1560, Applied Biosystems, Austin, Tex.). The expression levels of mature miRNAs were quantified using the Taqman miRNA expression assay (4427975-0002228, Applied Biosystems). RNU44 was used as an endogenous control for normalization. For mRNA expression analyses, 600 ng of total RNA was reverse transcribed using the cDNA First-Strand Synthesis Kit (18080-051, Invitrogen), and roughly 200 ng of the resulting cDNA was then mixed with SYBR green PCR Master Mix (4309155, Applied Biosystems) and the appropriate primers. Each reaction was performed in quadruplicate, and mRNA expression was quantified by performing real-time PCR amplification using an ABI Prism 7900HT Real-Time PCR System (Applied Biosystems). GAPDH was used as an endogenous control for normalization. The following primers were used: […]
RNA was extracted from whole cell lysates using the Total RNA Purification Kit (17200, Norgen, Thorold, Canada). 600 ng of total RNA was then reverse transcribed into cDNA using the cDNA First-Strand Synthesis Kit (18080-051, Invitrogen), and quantitative real-time PCR amplification was performed as previously described (Pencheva et al., 2012) using an ABI Prism 7900HT Real-Time PCR System (Applied Biosystems, Austin, Tex.). Each PCR reaction was carried out in quadruplicates. Gene expression was normalized to GAPDH, which was used as an endogenous control.
For every sample, 600 ng of RNA was reverse transcribed into cDNA using the cDNA First-Strand Synthesis kit (Invitrogen). Approximately 200 ng of cDNA was mixed with SYBR® green PCR Master Mix and the corresponding forward and reverse primers specific for detection of human ApoE. Each reaction was carried out in quadruplicates, and ApoE mRNA expression levels were measured by quantitative real-time PCR amplification using an ABI Prism 7900HT Real-Time PCR System (Applied Biosystems). The relative ApoE expression was determined using the ΔΔCt method. GAPDH was used as an endogenous control for normalization purposes.

[4] = system: extracellular ApoE protein from melanoma cells; test: ApoE ELISA in conditioned media; type: cell-based, human; details: MeWo cells, 1 μM, 72 hours
Experimental: Extracellular ApoE levels in serum-free conditioned media from melanoma cells treated with DMSO, GW3965, or T0901317 (1 μM each) were quantified using the ApoE ELISA kit (Innovative Research) at 72 hours following treatment.

Compound | activity of luciferase reporter containing the ApoE promoter fused to ME.1 or ME.2 [1] | ApoE protein expression in systemic adipose, lung, and brain tissues [2] | ApoE transcript levels in circulating white blood cells [2] | potency of ApoE expression induction in vitro [3] | expression of ApoE ([3]; parental MeWo cells, 48 hours) | levels of secreted ApoE protein [4]
O=C(O)Cc1cccc(OCCCN(Cc2cccc(C(F)(F)F)c2Cl)CC(c2ccccc2)c2ccccc2)c1 [GW3965 2, 3-[3-[N-(2-Chloro-3-trifluoromethylbenzyl)-(2,2-diphenylethyl)amino]propyloxy] phenylacetic acid hydrochloride] | enhance | significantly elevated | upregulated | potently induce | increased expression | elevated levels
O=S(=O)(c1ccccc1)N(CC(F)(F)F)c1ccc(C(O)(C(F)(F)F)C(F)(F)F)cc1 [T0901317 1] | enhance | significantly elevated | upregulated | potently induce | – | elevated levels
